The results in this text go back to PubChem BioAssay (NCI).

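Briefly, cells in 96-well plates were exposed to five compound concentrations for 48 h, and endpoints were estimated by linear interpolation. At the TGI there is no net growth.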

What all share (assay): NCI tumour cell line growth inhibition, 48 h
The subject of assay [1] is OVCAR-4 ovarian.
The test system of assay [2] is PC-3 prostate.
Assay [3] concerns NCI-H460 lung.
For assay [4], the system named is SK-MEL-5 melanoma.
Assay [5] concerns ACHN renal.
Assay [6] concerns SW-620 colon.
For assay [7], the system named is MDA-MB-435.
Assay [8] concerns NCI-H522 lung.
In assay [9] the test system is CAKI-1 renal.
For assay [10], the system named is UO-31 renal.
For assay [11], the system named is HCT-116 colon.
Assay [12] deals with NCI-H226 lung.
In assay [13] the test system is K-562 leukemia.
Assay [14] has as its system UACC-257 melanoma.

Regarding `c1ccc2c(OCC3CO3)ccc(OCC3CO3)c2c1` (centres undefined), the TGI in [1] turned out to be 21 µM; in assay [2] it was 17.1 µM; in assay [3], 12.5 µM; in [4], 19 µM; in assay [5] it was 6.48 µM; in assay [6], 4.03 µM. The TGI in assay [7] turned out to be 7.74 µM; in assay [8], 22.5 µM; in assay [9], 3.32 µM; in assay [10], 3.15 µM; in [11], 2.76 µM; in assay [12], 27.7 µM. Further, the TGI in [13] came to 16.8 µM; in [14], 20 µM.
For the molecule `COc1ccc(OC)c2c(=O)cc(-c3ccccc3)[nH]c12`, the TGI in [1], in [2], in [3], in [5], in [6] and in assay [7] was over 100 µM in each case. In addition, the TGI in assay [8], in [10], in assay [11], in [12], in [13] and in assay [14] was over 100 µM in each case.
For `C=C(CO)[C@H]1CC/C(C)=C/CC/C(C)=C/C/C=C(\C)[C@H](O)C1`, the TGI in [1] was over 100 µM; in assay [2], over 100 µM; in assay [3], 62.7 µM; in assay [4], 54.1 µM; in assay [5], 69.7 µM; in assay [6] it was 40.1 µM. Besides, the TGI in assay [7] is 35.8 µM; in assay [8], 32.1 µM; in assay [9] it was 75.1 µM; in [10] it was 93 µM; in [11] it was over 100 µM; in assay [12], 90.9 µM. In addition, the values for the TGI in assay [13] and in [14] were over 100 µM and 39.7 µM, respectively.
On to `CC1=CC[C@@]2(C)[C@@H]([C@@H]1C)[C@H]1CC[C@@H]3[C@@]4(C)CC[C@H](O)C(C)(C)[C@@H]4CC[C@@]3(C)[C@]1(C)C[C@@H]2O`, for which the TGI is over 82.2 µM in assay [1]; 40.6 µM in assay [2]; over 67.7 µM in [3]; over 62 µM in assay [4]; 36 µM in [5]; 98.6 µM in assay [6]. Further, the TGI in assay [7] is 70.2 µM; in assay [8] it was 8.15 µM; in assay [9], over 83.2 µM; in assay [10] it was over 100 µM; in assay [11] it was over 58 µM; in assay [12], over 100 µM. Also, the TGI in assay [13] was over 100 µM; in assay [14], 34.8 µM.
As to `CCCN(CCC)C(=S)N/N=C/c1cccc(C)n1`, the TGI in assay [1] is 3.21 µM; in [2], 62.9 µM; in assay [3], 0.748 µM; in assay [4] it was 0.654 µM; in assay [5], 0.821 µM; in assay [6], over 100 µM. Further, the TGI came to 28.8 µM in [7]; 2.51 µM in [8]; 4.65 µM in [9]; 12.2 µM in [10]; 0.196 µM in assay [11]; 0.837 µM in assay [12]. In addition, the results for the TGI in [13] and in [14] were 15 µM and 0.457 µM, respectively.
Consider `CC1=C(C#N)C(=O)N(/N=C/c2ccc(Cl)cc2)C(=O)/C1=c1\o/c(=C2/C(=O)N(/N=C/c3ccc(Cl)cc3)C(=O)C(C#N)=C2C)c2nccnc12`, for which the TGI in assay [1], in assay [2], in [3], in assay [4], in assay [5] and in assay [6] was over 100 µM each time. Besides, the TGI in [7], in assay [8], in assay [9], in assay [10], in [11] and in [12] was over 100 µM each time. Besides, the TGI in assay [13] and in assay [14] was over 100 µM in each case.
As for `COc1ccc2c(c1)-c1c(c3ccccc3n1CCN1CCCCC1)CC2`, the TGI in assay [1] was over 100 µM; in assay [2], over 87.7 µM; in [3], 32.4 µM; in assay [4], 30.1 µM; in [5], over 100 µM; in assay [6] it was 81.2 µM. In addition, the TGI in assay [7] was 73.2 µM; in [8], 28.6 µM; in assay [9], over 75.2 µM; in assay [10], 30 µM; in assay [11] it was 29.5 µM; in assay [12] it was 37.5 µM. Moreover, the results for the TGI in assay [13] and in assay [14] were 18 µM and 54.9 µM, respectively.
Take `[N-]=[N+]=Nc1cc(=O)n(-c2ccccc2)c(=O)n1-c1ccccc1`: the TGI in [1], in assay [2], in assay [4], in [5], in assay [6] and in assay [7] was over 100 µM each time. Moreover, the TGI in assay [8], in assay [9], in assay [10], in [11], in assay [12] and in assay [13] was over 100 µM each time. In assay [14], this molecule showed a TGI of over 100 µM.
In the case of `O=c1[nH]c2nccn2c(Cl)c1Br`, the TGI in assay [1] was 34.9 µM; in [2] it was over 100 µM; in assay [3], over 100 µM; in assay [4], 64.9 µM; in [5], 70.1 µM; in assay [6] it was 60.1 µM. In addition, the TGI is 42 µM in assay [7]; 29.8 µM in assay [8]; 40.7 µM in assay [9]; over 100 µM in assay [10]; over 100 µM in [11]; 89.4 µM in assay [12]. Moreover, the values for the TGI in [13] and in assay [14] were 39.1 µM and 45.7 µM, respectively.
For the molecule `CSC1=N/C(=C\c2ccc(Cl)cc2)C(=O)N1CN1CCOCC1`, the TGI was 61.6 µM in [1]; over 100 µM in assay [2]; over 100 µM in assay [4]; over 100 µM in assay [5]; over 100 µM in assay [6]; over 100 µM in [7]. Further, the TGI in assay [8], in assay [10], in assay [11], in [12] and in assay [13] was over 100 µM each time.
